Measurements: patent US20040096356A1, “Assay device for determining analytes in a liquid dairy product” (priority 1997, published 2004)

Tests used:
receptor BlaR-CTD [1] = target: T1, receptor BlaR-CTD (Bacillus licheniformis, UniProt P12287); test: Five minutes test: strip test for β-lactam antibiotics in milk using BlaR-CTD; assay type: binding; conditions: in 5 minutes; positive when first band is less intense than second band
T1 construct: the receptor BlaR-CTD is the carboxy-terminal region of BlaR
T1 sequence (P12287 340-601): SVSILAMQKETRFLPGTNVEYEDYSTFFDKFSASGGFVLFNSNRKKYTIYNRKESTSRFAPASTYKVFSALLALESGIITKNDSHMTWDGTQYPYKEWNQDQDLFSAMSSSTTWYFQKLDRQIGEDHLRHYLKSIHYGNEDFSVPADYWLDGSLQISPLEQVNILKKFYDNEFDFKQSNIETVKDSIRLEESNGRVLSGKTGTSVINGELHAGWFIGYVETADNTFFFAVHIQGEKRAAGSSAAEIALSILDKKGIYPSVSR
Source text: (§1) According to a preferred embodiment of the invention an identifier is used which comprises a receptor sensitive to antibiotics having a β-lactam ring, which receptor is obtained from Bacillus licheniformis, such as the receptor BlaR or the receptor BlaR-CTD. The isolation and the peptide sequence of the protein BlaR are described in Y. Zhu et al., J. Bacteriol., 1137-1141 (1990); the receptor BlaR-CTD is the carboxy-terminal region of BlaR, whose isolation and peptide sequence are described in B. Joris et al., FEMS Microbiology Letters, 107-114 (1990).
(§2) This example illustrates the detection in milk of antibiotics having a β-lactam ring which are monitored by the health authorities. The test described in this example uses the receptor BlaR-CTD coupled with gold beads, which serve as labelling agents, and uses a support which is in the form of an assay device comprising a solid support on which membranes are fixed.
(§3) 3.79 ml of a solution of recognition agent BlaR-CTD having a concentration of 6.6 mg/ml are taken up in a sodium phosphate buffer, 20 mM pH 7. To this solution of BlaR-CTD are then added 41.71 ml of bicarbonate buffer (0.1 M sodium bicarbonate, pH 9) and 2 ml of a solution of N-hydroxysuccinimide 6-(biotinamido)caproic ester containing 2.23 mg/ml likewise of bicarbonate buffer. This solution is stirred gently on a LABINCO stirrer for tubes on a rotary axis (available from VEL, Belgium) at a rate of 2 revolutions/minute for 2 hours at ambient temperature and away from light. 2.5 ml of a solution of Tris buffer, 1 M pH 8 are incubated with the reaction mixture under the same conditions for 30 minutes. The solution thus obtained is dialysed against HNM buffer (Hepes 100 mM, pH 8, NaCl 100 mM, MgCl2 50 mM) for 24 hours. In this way a biotinylated BlaR-CTD solution is obtained which is diluted in HNM-BSA buffer (Hepes 500 mM, pH 8, NaCl 500 mM, MgCl2 250 mM, BSA 10 mg/ml) to a concentration of 250 μg of biotinylated BlaR-CTD per ml of buffer. This solution is stored at −20° C.
(§4) The biotinylated BlaR-CTD solution prepared in Example 3.1.1 is diluted 114.7 times with the HNM-BSA buffer (Hepes 500 mM, pH 8, NaCl 500 mM, MgCl2 250 mM, BSA 10 mg/ml). At room temperature, 22.5 parts by volume of this dilute biotinylated BlaR-CTD solution, 7.5 parts by volume of HNM-BSA buffer, 9.27 parts by volume of the gold particle suspension used to label the biotinylated BlaR-CTD and 6 parts by volume of reference gold particle suspension are mixed (see Example 3.1.4 below).
(§5) The first capture substance makes it possible to fix the BlaR-CTD coupled with the gold beads present in excess relative to the quantity of antibiotic present in the sample.
(§6) Assay devices containing membranes (2), (3) and (4) are used, assembled in accordance with the procedure described in Example 1.1. The membrane (3) of these devices carries on the proximal side the capture substance described in Example 32.1. and on the distal side the capture substance described in Example 3.2.2. The capture substances were deposited in accordance with the procedure described in Example 1.2.
Six samples of fresh milk are prepared, containing 0; 2; 4; 6; 8 and 10 ppb, repsectively, of cloxacillin. Each of these solutions is then analysed as follows.
(§7) An aliquot is taken of 200 μl of milk sample and 45.27 μl of solution prepared in Example 3.1.3, and is placed in a glass flask. This mixture is incubated at 47° C. for 3 minutes. An assay device is taken and is placed vertically in the glass flask such that the first end of the assay device is in contact with the mixture in such a way that the second end rests on the wall of the glass flask. The mixture is allowed to migrate over the assay device while the assembly is incubated at 47° C. for 2 minutes.
(§8) An intensity value ranging from 0 to 10 is awarded to the bands detected, the value 10 being given to the most intense band and the value 0 being given to the least intense band. On this scale, a value of 6 is awarded to the reference band. […]

receptor BlaR-CTD [2] = target: T1, receptor BlaR-CTD; test: 9-minute test: strip test for β-lactam antibiotics in milk using BlaR-CTD; assay type: binding; conditions: in 9 minutes; positive when first band is less intense than second band
Source text: as §1, §2, §3, §4, §5, §6
Six samples of fresh milk are prepared, containing 0; 4; 6; 8; 10 and 12 ppb, respectively, of cephapirin. Each of these solutions is then analysed as follows.
as §7, with “for 7” for “for 3”
as §8

## CC1(C)S[C@@H]2[C@H](NC(=O)Cc3ccccc3)C(=O)N2[C@H]1C(=O)O [Penicillin G, penicillin G]
Receptor BlaR-CTD [1]
  lowest concentration detected in a milk sample: 3 ppb
Receptor BlaR-CTD [2]
  lowest concentration detected in a milk sample: 3 ppb
